The results in this text go back to patent publication US20250129012A1, “ANTI-INFLAMMATORY AND ANALGESIC COMPOUNDS AND USE THEREOF” (JIANGSU ATOM BIOSCIENCE AND PHARMACEUTICAL CO., LTD., priority 2021, published 2025).

Where two headings read alike, the source gives them in different places.

For assay [1], the system named is gouty arthritis rats (sodium urate, right ankle and knee joint cavities). Nature of the assay: Pharmacodynamics experiment B on gouty arthritis rats: ankle swelling rate. The class given is in vivo, SD rats. The note with it: for change in vivo at 0.6 mg/kg / change in vivo at 1.2 mg/kg: Rattus norvegicus, po, read-out: Swelling rate (ankle). The method, boiled down:
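Male SD rats dosed by gavage at 0.6 mg/kg (0.5% CMC-Na suspension) daily for 7 days before and 3 days after injection of 0.2 mL sodium urate solution into right ankle and knee joints. Ankle circumference measured before and 2-48 h after modeling; swelling rate = swelling degree/baseline ×100%, mean values.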

For assay [2], the system named is gouty arthritis in rats (urate crystals, left ankle joint). Nature of the assay: Pharmacodynamics experiment A on gouty arthritis in rats: pain score. Format: in vivo, SD rats. On the set-up: Pain score: scale not given here. Conditions: 0.6 mg/kg gavage; for Pain score: Mean ± SEM. Here is the method:
Compounds 2, 17, 26 and 27 were prepared by grinding with 0.5% CMC-Na into a suspension of the corresponding concentration (0.06 mg/mL) for gavage before administration, and the volume of administration was 10 mL/kg. […] Before use, 0.5% CMC-Na was used for grinding and prepared into a suspension of the corresponding concentration (0.06 mg/mL) for gavage, and the volume of drug administered was 10 mL/kg.
Each group of subjects was prepared into a suspension of the corresponding concentration, and the administration volume was 10 mL/kg.
The crystalline arthritis model was prepared by intra-articular injection of urate crystals (40 mg/mL, in the left ankle joint of each rat). Different doses of the test drug were given separately by gavage administration. The day of administration was defined as day 1 of the experiment, and the drug was administered once a day for 10 consecutive days (pre-administration of the drug for 7 days prior to modeling, modeling on day 8, and continuation of the drug for 3 days). The experiment ended on day 10.
The pain level was scored using the flexion and extension joint pain test scoring method at the same time point.
The data obtained from the experiment were statistically analyzed using IBM SPSS Statistics 22.0. All measurements were expressed as Mean±S.E.M s. The data were analyzed using SPSS 22.0 statistical software and variance chi-square test was performed on the parameters.

Regarding `COc1cc2c(c(OC)c1OC)-c1ccc(OC)c(=O)cc1[C@@H](NC(C)=O)CC2` [colchicine, reference compound], the change in vivo at 0.6 mg/kg in assay [1] (2 h) worked out at 10.5%; in assay [1] (4 h), 15.7%; in assay [1] (8 h), 20.6%; in assay [1] (10 h), 23.4%; in assay [1] (24 h), 24.4%; in assay [1] (48 h) it was 12.1%. Besides, the change in vivo at 1.2 mg/kg is 8.97% in assay [1] (2 h); 14.9% in assay [1] (4 h); 17.2% in assay [1] (8 h); 19.4% in assay [1] (10 h); 19.8% in assay [1] (24 h); 9.29% in assay [1] (48 h). In addition, the “Ankle swelling rate versus model group, in words” value in assay [1] (compounds 0.6 mg/kg, colchicine 0.6 and 1.2 mg/kg) is listed as “significantly (P<0.01) reduced”. The “Pain versus model group, in words” value in assay [2] (time points after modeling, P<0.05 or P<0.01) is “improved the pain at 2 h, 8 h, 24 h, and 48 h”. For the same compound, the Pain score in assay [2] (2 h after modeling) was determined as 3.30 ± 0.60; in assay [2] (4 h after modeling) it was 2.90 ± 0.71; in assay [2] (8 h after modeling) it was 3.20 ± 0.61; in assay [2] (10 h after modeling), 2.60 ± 0.70; in assay [2] (24 h after modeling), 1.40 ± 0.58; in assay [2] (48 h after modeling), 0.80 ± 0.44. Further, the Pain score in assay [2] (before modeling) is recorded as 0.00 ± 0.00.
